In US20240269302A1, “NANOPARTICLE COMPRISING PEPTIDE-LIPID CONJUGATE FOR DELIVERING OLIGONUCLEOTIDE INTO TARGET CELL AND PHARMACEUTICAL COMPOSITION COMPRISING SAME” (NIBEC CO., LTD., priority 2021, published 2024):

System: KRAS mRNA
Assay: Reduction of KRAS mRNA by KRAS siRNA delivered into cells, quantitative real-time PCR
Assay type: cell-based, human
Conditions: H358 cells, 100 nM, 16 hours, qRT-PCR, 18S rRNA as housekeeping gene
Experimental: H358 cells were seeded at a density of 70% in a 6-well plate. After 16 hours, cell starvation was performed overnight with DMEM containing 0.5% FBS. The cells were treated with a medium containing nanoparticles comprising KRAS siRNA and a peptide-lipid conjugate at a concentration of 100 nM for 16 hours. As a control, 100 nM of siRNA mixed with Lipofectamine was used.
Quantitative real-time PCR was performed in the following manner. For mRNA quantification, total RNA was isolated using the Qiagen RNeasy kit. cDNA was synthesized using Verso cDNA kit (Thermo Scientific) using 500 ng RNA. mRNA values were measured with a 7500 Fast Real-Time PCR System (Applied Biosystems) based on SYBR Green.
18S rRNA was used as a housekeeping gene (control gene). PCR was performed using reverse-transcribed RNA and 100 ng/μL of sense and antisense primers (total volume 20 μL) were used. 40 cycles were performed and each cycle included denaturation at 95° ° C. for 15 seconds, annealing for 1 minute, and extension at 60° ° C.

siRNA alone: siRNA that inhibits the expression of KRAS (SEQ ID NO: 19 sense, SEQ ID NO: 20 antisense), without carrier (sense CAGCUAAUUCAGAAUCAUU; antisense AAUGAUUCUGAAUUAGCUG; listed as RNA, chemistry not given here)
KRAS mRNA: no effect
